In ChEMBL document CHEMBL3826905, “1'-Homonucleosides and their structural analogues: A review” (Eur J Med Chem, 2016):
In brackets after ≈: the same amount, converted by molar mass.

Test system: Hepatitis C virus
Experiment: Antiviral activity against Hepatitis C virus
Assay type: functional, organism-based, Hepacivirus hominis
Details: not given

SMILES | EC50 [nM]
Clc1ncnc2c1ncn2CC12C=CC(O1)c1ccccc12 (stereo not given) | 6310
OC[C@@]12O[C@@](Cn3cnc4c(Cl)ncnc43)(c3ccccc31)[C@H](O)[C@@H]2O | 45100
OCC12CCC(O1)c1cc3ccccc3cc12 (stereo not given) | 6310
OCC12CCC(Cn3cnc4c(Cl)ncnc43)(O1)c1ccccc12 (stereo not given) | 45100
O[C@H]1C[C@@]2(Cn3cnc4c(Cl)ncnc43)O[C@@H]1c1ccccc12 | 45100
OCC12C=CC(Cn3cnc4c(Cl)ncnc43)(O1)c1ccccc12 (stereo not given) | 45100
O=C(OCC12C=CC(O1)c1cc3ccccc3cc12)c1ccccc1 (stereo not given) | 6310

Test system: not listed separately
Experiment: Cytotoxicity against human CEM/0 cells assessed as reduction in cell viability
Assay type: cell-based, CCRF-CEM
Details: not given

SMILES | CC50 [µg/mL]
Nc1nc(Cl)c2ncn(C[C@H]3CC[C@@H](CO)C3)c2n1 | 1 (≈ 3.55 µM)

Test system: not listed separately
Experiment: Cytostatic activity against mouse L1210/0 cells
Assay type: functional, cell-based
Details: Mus musculus, L1210/0

SMILES | IC50 [µg/mL]
OC[C@H]1C[C@@H](Cn2cnc3c(O)ncnc32)c2ccccc21 | 24 (≈ 81 µM)
Cc1ccc(-c2ncnc3c2ncn3C[C@@H]2C[C@H](CO)c3ccccc32)cc1 | 1.4 (≈ 3.78 µM)
CCCNc1ncnc2c1ncn2C[C@@H]1C[C@H](CO)c2ccccc21 | 24 (≈ 71.1 µM)
CC(C)Nc1ncnc2c1ncn2C[C@@H]1C[C@H](CO)c2ccccc21 | 24 (≈ 71.1 µM)
Cn1ncc2c1[C@@H](CO[Si](c1ccccc1)(c1ccccc1)C(C)(C)C)C[C@H]2Cn1cnc2c(O)ncnc21 | 3.2 (≈ 5.94 µM)
Nc1ncnc2c1ncn2C[C@@H]1C[C@H](CO)c2ccccc21 | 24 (≈ 81.3 µM)
Cn1ncc2c1[C@H](Cn1cnc3c(Cl)ncnc31)C[C@@H]2CO[Si](c1ccccc1)(c1ccccc1)C(C)(C)C | 3.2 (≈ 5.74 µM)
OC[C@H]1C[C@@H](Cn2cnc3c(Cl)ncnc32)c2ccccc21 | 24 (≈ 76.2 µM)
COc1ncnc2c1ncn2C[C@@H]1C[C@H](CO)c2ccccc21 | 24 (≈ 77.3 µM)
Cn1ncc2c1[C@H](Cn1cnc3c(Cl)nc(N)nc31)C[C@@H]2CO | 3.2 (≈ 9.59 µM)
CCOc1ncnc2c1ncn2C[C@@H]1C[C@H](CO)c2ccccc21 | 24 (≈ 74 µM)
OC[C@H]1C[C@@H](Cn2cnc3c(-c4ccc(Cl)cc4)ncnc32)c2ccccc21 | 0.63 (≈ 1.61 µM)
Cc1cn(C[C@@H]2C[C@H](CO)c3ccccc32)c(=O)[nH]c1=O | 81 (≈ 283 µM)
OC[C@H]1C[C@@H](Cn2cnc3c(NC4CC4)ncnc32)c2ccccc21 | 24 (≈ 71.6 µM)
Cn1ncc2c1[C@H](Cn1ccc(=O)[nH]c1=O)C[C@@H]2CO[Si](c1ccccc1)(c1ccccc1)C(C)(C)C | 3.2 (≈ 6.22 µM)

Test system: Cytomegalovirus
Experiment: Antiviral activity against Cytomegalovirus AD169 infected in HEL cells
Assay type: functional, organism-based
Details: Human betaherpesvirus 5, AD169, HEL

SMILES | EC50 [nM]
CC(C)(C)[Si](OC[C@H]1C[C@@H](Cn2cnc3c(Cl)nc(N)nc32)c2cn(Cc3ccccc3)nc21)(c1ccccc1)c1ccccc1 | 440
Nc1nc2c(ncn2COC(CO)CO)c(=O)[nH]1 [GANCICLOVIR] | 250
CC(C)(C)[Si](OC[C@H]1C[C@@H](Cn2cnc3c(N)ncnc32)c2cn(Cc3ccccc3)nc21)(c1ccccc1)c1ccccc1 | 500

Test system: not listed separately
Experiment: Antiproliferative activity against human Molt4/C8 cells
Assay type: functional, cell-based
Details: MOLT-4

SMILES | IC50 [µg/mL]
OCC1CCCC1n1cnc2c(Cl)ncnc21 (stereo not given) | 19 (≈ 75.2 µM)
CC1(C)[C@@H](Cn2cnc3c(Cl)nc(N)nc32)CC[C@@]1(C)CO | 13.2 (≈ 40.8 µM)
Nc1ncnc2c1ncn2C[C@H]1CCC[C@H]1CO | 100 (≈ 404 µM)

Test system: Cytomegalovirus
Experiment: Antiviral activity against Cytomegalovirus Davis 07/1 infected in HEL cells
Assay type: functional, organism-based
Details: Human betaherpesvirus 5, Davis 07/1, HEL

SMILES | EC50 [nM]
CC(C)(C)[Si](OC[C@H]1C[C@@H](Cn2cnc3c(Cl)nc(N)nc32)c2cn(Cc3ccccc3)nc21)(c1ccccc1)c1ccccc1 | 390
Nc1nc2c(ncn2COC(CO)CO)c(=O)[nH]1 [GANCICLOVIR] | 400
CC(C)(C)[Si](OC[C@H]1C[C@@H](Cn2cnc3c(N)ncnc32)c2cn(Cc3ccccc3)nc21)(c1ccccc1)c1ccccc1 | 500

Test system: Human immunodeficiency virus 2
Experiment: Antiviral activity against HIV2
Assay type: functional, organism-based
Details: not given

SMILES | EC50 [µg/mL]
CC1(C)[C@@H](Cn2cnc3c(Cl)nc(N)nc32)CC[C@@]1(C)CO | 4 (≈ 12.4 µM)

Test system: not listed separately
Experiment: Cytotoxicity against human HeLa cells assessed as alteration in cell morphology by microscopic method
Assay type: cell-based
Details: not given

SMILES | CC50 [µg/mL]
Nc1nc(Cl)c2ncn(C[C@H]3CC[C@@H](CO)C3)c2n1 | 1 (≈ 3.55 µM)

Test system: not listed separately
Experiment: Cytotoxicity against human E6SM cells assessed as alteration in cell morphology by microscopic method
Assay type: cell-based
Details: not given

SMILES | CC50 [µg/mL]
Nc1nc(Cl)c2ncn(C[C@H]3CC[C@@H](CO)C3)c2n1 | 1 (≈ 3.55 µM)

Test system: not listed separately
Experiment: Antiproliferative activity against mouse L1210/0 cells
Assay type: functional, cell-based
Details: not given

SMILES | IC50 [µg/mL]
OCC1CCCC1n1cnc2c(Cl)ncnc21 (stereo not given) | 19 (≈ 75.2 µM)
CC1(C)[C@@H](Cn2cnc3c(Cl)nc(N)nc32)CC[C@@]1(C)CO | 16.2 (≈ 50 µM)
Nc1ncnc2c1ncn2C[C@H]1CCC[C@H]1CO | 100 (≈ 404 µM)

Test system: not listed separately
Experiment: Antiproliferative activity against human CEM/0 cells
Assay type: functional, cell-based
Details: CCRF-CEM

SMILES | IC50 [µg/mL]
OCC1CCCC1n1cnc2c(Cl)ncnc21 (stereo not given) | 19 (≈ 75.2 µM)
Nc1ncnc2c1ncn2C[C@H]1CCC[C@H]1CO | 100 (≈ 404 µM)

Test system: MOLT-4
Experiment: Cytostatic activity against human Molt4/C8 cells
Assay type: functional, cell-based
Details: Homo sapiens, MOLT-4

SMILES | IC50 [µg/mL]
OC[C@H]1C[C@@H](Cn2cnc3c(O)ncnc32)c2ccccc21 | 24 (≈ 81 µM)
Cc1ccc(-c2ncnc3c2ncn3C[C@@H]2C[C@H](CO)c3ccccc32)cc1 | 1.4 (≈ 3.78 µM)
CCCNc1ncnc2c1ncn2C[C@@H]1C[C@H](CO)c2ccccc21 | 24 (≈ 71.1 µM)
CC(C)Nc1ncnc2c1ncn2C[C@@H]1C[C@H](CO)c2ccccc21 | 24 (≈ 71.1 µM)
Cn1ncc2c1[C@@H](CO[Si](c1ccccc1)(c1ccccc1)C(C)(C)C)C[C@H]2Cn1cnc2c(O)ncnc21 | 3.2 (≈ 5.94 µM)
Nc1ncnc2c1ncn2C[C@@H]1C[C@H](CO)c2ccccc21 | 24 (≈ 81.3 µM)
Cn1ncc2c1[C@H](Cn1cnc3c(Cl)ncnc31)C[C@@H]2CO[Si](c1ccccc1)(c1ccccc1)C(C)(C)C | 3.2 (≈ 5.74 µM)
OC[C@H]1C[C@@H](Cn2cnc3c(Cl)ncnc32)c2ccccc21 | 24 (≈ 76.2 µM)
COc1ncnc2c1ncn2C[C@@H]1C[C@H](CO)c2ccccc21 | 24 (≈ 77.3 µM)
Cn1ncc2c1[C@H](Cn1cnc3c(Cl)nc(N)nc31)C[C@@H]2CO | 3.2 (≈ 9.59 µM)
CCOc1ncnc2c1ncn2C[C@@H]1C[C@H](CO)c2ccccc21 | 24 (≈ 74 µM)
OC[C@H]1C[C@@H](Cn2cnc3c(-c4ccc(Cl)cc4)ncnc32)c2ccccc21 | 0.63 (≈ 1.61 µM)
Cc1cn(C[C@@H]2C[C@H](CO)c3ccccc32)c(=O)[nH]c1=O | 81 (≈ 283 µM)
OC[C@H]1C[C@@H](Cn2cnc3c(NC4CC4)ncnc32)c2ccccc21 | 24 (≈ 71.6 µM)
Cn1ncc2c1[C@H](Cn1ccc(=O)[nH]c1=O)C[C@@H]2CO[Si](c1ccccc1)(c1ccccc1)C(C)(C)C | 3.2 (≈ 6.22 µM)

Test system: Human immunodeficiency virus 1
Experiment: Antiviral activity against HIV1
Assay type: functional, organism-based
Details: not given

SMILES | EC50 [µg/mL]
CC1(C)[C@@H](Cn2cnc3c(Cl)nc(N)nc32)CC[C@@]1(C)CO | 4 (≈ 12.4 µM)

Test system: CCRF-CEM
Experiment: Cytostatic activity against human CEM/0 cells
Assay type: functional, cell-based
Details: not given

SMILES | IC50 [µg/mL]
OC[C@H]1C[C@@H](Cn2cnc3c(O)ncnc32)c2ccccc21 | 24 (≈ 81 µM)
Cc1ccc(-c2ncnc3c2ncn3C[C@@H]2C[C@H](CO)c3ccccc32)cc1 | 1.4 (≈ 3.78 µM)
CCCNc1ncnc2c1ncn2C[C@@H]1C[C@H](CO)c2ccccc21 | 24 (≈ 71.1 µM)
CC(C)Nc1ncnc2c1ncn2C[C@@H]1C[C@H](CO)c2ccccc21 | 24 (≈ 71.1 µM)
Cn1ncc2c1[C@@H](CO[Si](c1ccccc1)(c1ccccc1)C(C)(C)C)C[C@H]2Cn1cnc2c(O)ncnc21 | 3.2 (≈ 5.94 µM)
Nc1ncnc2c1ncn2C[C@@H]1C[C@H](CO)c2ccccc21 | 24 (≈ 81.3 µM)
Cn1ncc2c1[C@H](Cn1cnc3c(Cl)ncnc31)C[C@@H]2CO[Si](c1ccccc1)(c1ccccc1)C(C)(C)C | 3.2 (≈ 5.74 µM)
OC[C@H]1C[C@@H](Cn2cnc3c(Cl)ncnc32)c2ccccc21 | 24 (≈ 76.2 µM)
COc1ncnc2c1ncn2C[C@@H]1C[C@H](CO)c2ccccc21 | 24 (≈ 77.3 µM)
Cn1ncc2c1[C@H](Cn1cnc3c(Cl)nc(N)nc31)C[C@@H]2CO | 3.2 (≈ 9.59 µM)
CCOc1ncnc2c1ncn2C[C@@H]1C[C@H](CO)c2ccccc21 | 24 (≈ 74 µM)
OC[C@H]1C[C@@H](Cn2cnc3c(-c4ccc(Cl)cc4)ncnc32)c2ccccc21 | 0.63 (≈ 1.61 µM)
Cc1cn(C[C@@H]2C[C@H](CO)c3ccccc32)c(=O)[nH]c1=O | 81 (≈ 283 µM)
OC[C@H]1C[C@@H](Cn2cnc3c(NC4CC4)ncnc32)c2ccccc21 | 24 (≈ 71.6 µM)
Cn1ncc2c1[C@H](Cn1ccc(=O)[nH]c1=O)C[C@@H]2CO[Si](c1ccccc1)(c1ccccc1)C(C)(C)C | 3.2 (≈ 6.22 µM)

Test system: Human alphaherpesvirus 3
Experiment: Antiviral activity against TK-deficient Varicella-zoster virus infected in HEL cells
Assay type: functional, organism-based
Details: Human alphaherpesvirus 3, HEL

SMILES | EC50 [nM]
CC(C)(C)[Si](OC[C@H]1C[C@@H](Cn2cnc3c(Cl)nc(N)nc32)c2cn(Cc3ccccc3)nc21)(c1ccccc1)c1ccccc1 | 2100
CC(C)(C)[Si](OC[C@H]1C[C@@H](Cn2cnc3c(N)ncnc32)c2cn(Cc3ccccc3)nc21)(c1ccccc1)c1ccccc1 | 1500

Test system: not listed separately
Experiment: Cytotoxicity against African green monkey Vero cells assessed as alteration in cell morphology by microscopic method
Assay type: cell-based
Details: chlorocebus sabaeus

SMILES | CC50 [µg/mL]
Nc1nc(Cl)c2ncn(C[C@H]3CC[C@@H](CO)C3)c2n1 | 1 (≈ 3.55 µM)

Test system: not listed separately
Experiment: Cytotoxicity against HEL cells assessed as reduction in cell viability
Assay type: cell-based
Details: human

SMILES | CC50 [µg/mL]
Nc1nc(Cl)c2ncn(C[C@H]3CC[C@@H](CO)C3)c2n1 | 1 (≈ 3.55 µM)
